Measurements from patent publication US20060264419A1 (priority 2003, published 2006).

Assays:
5-HT2A receptors = 5-HT2A receptors (Rattus norvegicus, UniProt P14842); experiment: in-vitro affinity to 5-HT2A receptors, displacement of [3H]ketanserine (Example A1); format: binding; details: read-out: HT2A IC50
From the text: The 5-HT2A receptors are exposed both to [^3H]ketanserine (a substance which is known for its affinity to the receptor) and also to the test compound. The decrease in the affinity of [^3H]ketanserine to the receptor is an indication of the affinity of the test substance to the 5-HT2A receptor.

5 HT2C receptor = molecular target: T1, 5 HT2C receptor (Homo sapiens, UniProt P28335); experiment: affinity to the 5 HT2C receptor; format: binding
T1 sequence (P28335 33-458): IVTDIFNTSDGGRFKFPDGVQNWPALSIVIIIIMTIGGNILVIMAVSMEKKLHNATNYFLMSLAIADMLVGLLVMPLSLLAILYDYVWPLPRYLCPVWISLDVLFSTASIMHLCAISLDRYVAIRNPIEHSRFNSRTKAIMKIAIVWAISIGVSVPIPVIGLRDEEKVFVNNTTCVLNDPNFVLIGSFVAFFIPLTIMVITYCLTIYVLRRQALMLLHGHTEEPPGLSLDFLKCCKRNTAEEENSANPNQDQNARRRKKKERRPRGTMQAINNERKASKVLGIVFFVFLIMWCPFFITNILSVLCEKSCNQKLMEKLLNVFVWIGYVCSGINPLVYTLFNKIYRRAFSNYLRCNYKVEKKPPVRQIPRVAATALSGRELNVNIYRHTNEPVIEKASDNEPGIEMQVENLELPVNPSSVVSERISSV

Sequence of 5-HT2A receptors (P14842 whole entry): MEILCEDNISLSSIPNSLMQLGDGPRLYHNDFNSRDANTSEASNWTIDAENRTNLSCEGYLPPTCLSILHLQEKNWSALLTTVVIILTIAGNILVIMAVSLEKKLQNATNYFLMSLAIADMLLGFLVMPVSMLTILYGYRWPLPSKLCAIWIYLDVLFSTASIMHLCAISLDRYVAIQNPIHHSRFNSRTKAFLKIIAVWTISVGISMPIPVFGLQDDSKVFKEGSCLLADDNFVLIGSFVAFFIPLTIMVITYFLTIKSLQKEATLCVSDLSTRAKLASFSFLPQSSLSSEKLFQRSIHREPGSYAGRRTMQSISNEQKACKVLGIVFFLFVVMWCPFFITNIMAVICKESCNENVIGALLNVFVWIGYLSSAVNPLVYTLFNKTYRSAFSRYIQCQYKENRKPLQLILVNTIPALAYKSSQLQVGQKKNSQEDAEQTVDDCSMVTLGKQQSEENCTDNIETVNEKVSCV

| Structure (SMILES) | IC50 (5-HT2A receptors) [nM] | IC50 (5 HT2C receptor) [nM] |
| --- | --- | --- |
| O=C1NCN(c2ccccc2)C12CCN(Cc1cnn(-c3ccc(-c4ccccc4)cc3)c1-c1ccccc1F)CC2 [Example 1051, 8-[1-Biphenyl-4-yl-5-(2-fluorophenyl)-1H-pyrazol-4-ylmethyl]-1-phenyl-1,3,8-triaza-spiro[4.5]decan-4-one] | 400 | 1000 |
| CN1CCN(Cc2cnn(-c3ccc(-c4ccccc4F)cc3)c2-c2ccc(F)cc2)CC1 [Example 1013, 1-[1-(2′-Fluorobiphenyl-4-yl)-5-(4-fluoro-phenyl)-1H-pyrazol-4-ylmethyl]-4-methyl-piperazine] | 210 | 1000 |
| Fc1ccccc1-c1c(CN2CCNCC2)cnn1-c1ccc(-c2ccccc2)cc1 [Example 924, 1-[1-Biphenyl-4-yl-5-(2-fluorophenyl)-1H-pyrazol-4-ylmethyl]piperazine] | 26 | 660 |
| OC1CCN(Cc2cnn(-c3ccc(-c4ccccc4)cc3)c2-c2ccccc2F)C1 (stereo not drawn) [Example 904, 1-[1-Biphenyl-4-yl-5-(2-fluorophenyl)-1H-pyrazol-4-ylmethyl]pyrrolidin-3-ol] | 14 | 2000 |
| CC(=O)NC1CCN(Cc2cnn(-c3ccc(-c4ccccc4)cc3)c2-c2ccccc2F)C1 (stereo not drawn) [Example 929, N-{1-[1-Biphenyl-4-yl-5-(2-fluoro-phenyl)-1H-pyrazol-4-ylmethyl]pyrrolidin-3-yl}acetamide] | 29 | 1000 |
| NCCNCc1cnn(-c2ccc(-c3ccccc3)cc2)c1-c1ccccc1F [Example 894, N-[1-Biphenyl-4-yl-5-(2-fluorophenyl)-1H-pyrazol-4-ylmethyl]ethane-1,2-diamine] | 6.5 | 450 |
| CN1CCN(Cc2cnn(-c3ccc(-n4cccc4)cc3)c2-c2ccccc2F)CC1 [Example 909, 1-[5-(2-Fluorophenyl)-1-(4-pyrrol-1-ylphenyl)-1H-pyrazol-4-ylmethyl]-4-methylpiperazine] | 17 | 210 |
| CN1CCN(Cc2cnn(-c3ccc(-c4ccc(Cl)cc4)cc3)c2-c2ccccc2F)CC1 [Example 920, 1-[1-(4′-Chlorobiphenyl-4-yl)-5-(2-fluoro-phenyl)-1H-pyrazol-4-ylmethyl]-4-methyl-piperazine] | 23 | 330 |
| CC(C)N1CCN(Cc2cnn(-c3ccc(-c4ccc(F)cc4)cc3)c2-c2ccccc2Cl)CC1 [Example 997, 1-[5-(2-Chlorophenyl)-1-(4′-fluoro-biphenyl-4-yl)-1H-pyrazol-4-ylmethyl]-4-isopropylpiperazine] | 160 | 1000 |
| CN1CCN(Cc2cnn(-c3ccc(-c4ccccc4)cc3)c2-c2ccccn2)CC1 [Example 949, 1-(1-Biphenyl-4-yl-5-pyridin-2-yl-1H-pyrazol-4-ylmethyl)-4-methylpiperazine] | 50 | 1000 |
| CCN1CCN(CCc2cnn(-c3ccc(-c4ccc(F)cc4)cc3)c2-c2ccccc2F)CC1 [Example 928, 1-Ethyl-4-{2-[1-(4′-fluorobiphenyl-4-yl)-5-(2-fluorophenyl)-1H-pyrazol-4-yl]ethyl}piperazine] | 28 | 1300 |
| CN1CCN(Cc2cnn(-c3ccc(-c4ccsc4)cc3)c2-c2ccco2)CC1 [Example 891, 1-[5-Furan-2-yl-1-(4-thiophen-3-ylphenyl)-1H-pyrazol-4-ylmethyl]-4-methylpiperazine] | 4.5 | 210 |
| CC(C)N1CCN(Cc2cnn(-c3ccc(-c4ccc(F)cc4)cc3)c2-c2cccc(Cl)c2)CC1 [Example 943, 1-[5-(3-Chlorophenyl)-1-(4′-fluorobiphenyl-4-yl)-1H-pyrazol-4-ylmethyl]-4-isopropylpiperazine] | 41 | 1000 |
| c1ccc(-c2ccc(-n3ncc(CNCc4ccccn4)c3-c3ccccc3)cc2)cc1 [Example 918, (1-Biphenyl-4-yl-5-phenyl-1H-pyrazol-4-yl-methyl)pyridin-2-ylmethylamine] | 23 | 1000 |
| c1ccc(-c2ccc(-n3ncc(CNCc4ccncc4)c3-c3ccccc3)cc2)cc1 [Example 932, (1-Biphenyl-4-yl-5-phenyl-1H-pyrazol-4-yl-methyl)pyridin-4-ylmethylamine] | 31 | 1000 |
| COCCCNCc1cnn(-c2ccc(-c3ccccc3)cc2)c1-c1ccccc1F [Example 935, [1-Biphenyl-4-yl-5-(2-fluorophenyl)-1H-pyrazol-4-ylmethyl]-(3-methoxypropyl)amine] | 34 | 1000 |
| Fc1ccc(-c2ccc(-n3ncc(CN4CCN(C5CCCC5)CC4)c3-c3ccccc3Cl)cc2)cc1 [Example 1027, 1-[5-(2-Chlorophenyl)-1-(4′-fluoro-biphenyl-4-yl)-1H-pyrazol-4-ylmethyl]-4-cyclopentylpiperazine] | 260 | 1000 |

| Structure (SMILES) | IC50 (5-HT2A receptors) [nM] | IC50 (5 HT2C receptor) [nM] |
| --- | --- | --- |
| Cn1cccc1CNCc1cnn(-c2ccc(-c3ccccc3)cc2)c1-c1ccccc1 [Example 925, (1-Biphenyl-4-yl-5-phenyl-1H-pyrazol-4-yl-methyl)-(1-methyl-1H-pyrrol-2-ylmethyl)amine] | 26 | 520 |
| CN1CCN(Cc2cnn(-c3ccc(-c4ccc(F)cc4)cc3)c2-c2ccccc2Cl)CC1 [Example 965, 1-[5-(2-Chlorophenyl)-1-(4′-fluoro-biphenyl-4-yl)-1H-pyrazol-4-ylmethyl]-4-methylpiperazine] | 72 | 600 |
| COc1ccc(-c2ccc(-n3ncc(CN4CCN(C)CC4)c3-c3ccccc3F)cc2)cc1 [Example 895, 1-[5-(2-Fluorophenyl)-1-(4′-methoxy-biphenyl-4-yl)-1H-pyrazol-4-ylmethyl]-4-methyl-piperazine] | 7.5 | 1150 |
| CN1CCN(Cc2cnn(-c3ccc(-c4ccccc4)cc3)c2-c2cccnc2)CC1 [Example 1035, 1-(1-Biphenyl-4-yl-5-pyridin-3-yl-1H-pyrazol-4-ylmethyl)-4-methylpiperazine] | 290 | 1000 |
| Fc1ccccc1-c1c(CCN2CCOCC2)cnn1-c1ccc(-c2ccccc2)cc1 [Example 898, 4-{2-[1-Biphenyl-4-yl-5-(2-fluoro-phenyl)-1H-pyrazol-4-yl]ethyl}morpholine] | 12 | 1000 |
| Fc1ccccc1-c1c(CNc2ccon2)cnn1-c1ccc(-c2ccccc2)cc1 [Example 1022, [1-Biphenyl-4-yl-5-(2-fluorophenyl)-1H-pyrazol-4-ylmethyl]isoxazol-3-ylamine] | 240 | 1000 |
| CC(C)c1ccc(-n2ncc(CN3CCN(C)CC3)c2-c2ccccc2F)cc1 [Example 983, 1-[5-(2-Fluorophenyl)-1-(4-isopropylphenyl)-1H-pyrazol-4-ylmethyl]-4-methylpiperazine] | 120 | 520 |
| COc1cccc(-c2ccc(-n3ncc(CN4CCN(C)CC4)c3-c3ccccc3F)cc2)c1 [Example 930, 1-[5-(2-Fluorophenyl)-1-(3′-methoxy-biphenyl-4-yl)-1H-pyrazol-4-ylmethyl]-4-methyl-piperazine] | 29 | 690 |
| CN1CCN(Cc2cnn(-c3ccc(-c4ccc(F)cc4)cc3)c2-c2ccccc2F)CC1 [Example 902, 1-[1-(4′-Fluorobiphenyl-4-yl)-5-(2-fluoro-phenyl)-1H-pyrazol-4-ylmethyl]-4-methyl-piperazine] | 13.1 | 215 |
| CCN1CCCC1CNCc1cnn(-c2ccc(-c3ccccc3)cc2)c1-c1ccccc1F (stereo not drawn) [Example 947, [1-Biphenyl-4-yl-5-(2-fluorophenyl)-1H-pyrazol-4-ylmethyl]-(1-ethyl-pyrrolidin-2-yl-methyl)amine] | 46.9 | 1000 |
| OCc1cnn(-c2ccc(-c3ccc(F)cc3)cc2)c1-c1ccc(Cl)cc1 [Example 933, [5-(4-Chlorophenyl)-1-(4′-fluoro-biphenyl-4-yl)-1H-pyrazol-4-yl]methanol] | 31 | 1000 |
| CCN1CCN(Cc2cnn(-c3ccc(-c4ccc(F)cc4)cc3)c2-c2ccccc2Cl)CC1 [Example 975, 1-[5-(2-Chlorophenyl)-1-(4′-fluoro-biphenyl-4-yl)-1H-pyrazol-4-ylmethyl]-4-ethylpiperazine] | 88 | 1000 |
| CCN1CCN(Cc2cnn(-c3ccc(-c4ccc(F)cc4)cc3)c2-c2ccc(Cl)cc2)CC1 [Example 1037, 1-[5-(4-Chlorophenyl)-1-(4′-fluoro-biphenyl-4-yl)-1H-pyrazol-4-ylmethyl]-4-ethylpiperazine] | 310 | 1000 |
| OCCNCc1cnn(-c2ccc(-c3ccccc3)cc2)c1-c1ccccc1F [Example 892, 2-{[1-Biphenyl-4-yl-5-(2-fluorophenyl)-1H-pyrazol-4-ylmethyl]amino}ethanol] | 5.2 | 420 |
| CN1CCN(Cc2cnn(-c3ccc(-c4cc(F)ccc4F)cc3)c2-c2ccc(F)cc2)CC1 [Example 1021, 1-[1-(2′,5′-Difluorobiphenyl-4-yl)-5-(4-fluoro-phenyl)-1H-pyrazol-4-ylmethyl]-4-methyl-piperazine] | 240 | 1000 |
| Fc1ccccc1-c1c(CN2CCNCC2)cnn1-c1ccc(C(F)(F)F)cc1 [Example 944, 1-[5-(2-Fluorophenyl)-1-(4-trifluoro-methyl-phenyl)-1H-pyrazol-4-ylmethyl]piperazine] | 43 | 790 |
